Reference: patent publication US20100047306A1, “PHARMACEUTICAL COMPOSITIONS COMPRISING BISPHOSPONATES” (NOVARTIS AG, priority 2006, published 2010)

Test system: Wistar rats
Assay: Tolerability study of calcium zoledronate microparticles in rats after s.c. administration (skin fold thickness)
Type: in vivo, rat
Settings: s.c. injection of suspension, 60 microgram, female Wistar rats
Procedure: The microparticles of Examples 2 and 3 are suspended in a vehicle containing sodium carboxy methylcellulose, D-mannitol, Pluronics F68 and water for injection. 200 microliters of these suspensions were injected subcutaneously to the shaved skin at the left dorsal side of 8 weeks old female virgin Wistar rats (body weight approximately 220 g). In this way 1 mg dose (per animal) of zoledronic acid of the 15% calcium zoledronate microparticles (Example 3) and 2 mg dose (per animal) of zoledronic acid of the 10% calcium zoledronate microparticles (Example 2) were applied to a group of 6 animals per formulation. The thickness of the skin will be measured by a micro-caliper at the side of injection and the contra-lateral non-injected side. As reference a suspension of non-encapsulated drug substance is injected in a dose of 60 microgram. In addition, placebo microparticles made out of PLGA 75:25 (IV 0.68 dL/g) are also injected as control.

SMILES: O=P([O-])(O)C(O)(Cn1ccnc1)P(=O)([O-])O.[Ca+2] [non-encapsulated drug substance, calcium zoledronate]
- swelling of the skin / local skin irritation: strong swelling of the skin
